# Data: patent US5679701A (priority 1996, dated 1997)
# Several values for one entry are separate records, joined by “and”; a condition that tells them apart may be missing. Equal entries are not always repeated. Entries after “also recorded” stand apart in the source; their conditions may differ. Where two headings read alike, the source gives them in different places.
# Experiments:
# [1] = molecular target: T1, ryanodine receptor (skeletal sarcoplasmic reticulum membrane vesicles) (Oryctolagus cuniculus, UniProt P11716); experiment: biochemical; format: binding
# T1 construct: skeletal sarcoplasmic reticulum membrane vesicles; from tissue; host or cells: skeletal muscle sarcoplasmic reticulum membrane vesicles
# [2] = system: SR Ca^++ release channel/ryanodine receptor (cardiac and skeletal muscle vesicles); format: biochemical
# [3] = molecular target: T2, Sarcoplasmic Reticular Ca^++ -Release Channel (ryanodine receptor) (Oryctolagus cuniculus, UniProt P11716); experiment: biochemical; format: binding
# T2 construct: skeletal sarcoplasmic reticulum membrane vesicles; from tissue; host or cells: skeletal muscle sarcoplasmic reticulum membrane vesicles
# [4] = molecular target: SR Ca^2+ release channel (junctional SR vesicles from rabbit skeletal muscle) (Oryctolagus cuniculus, UniProt P11716); experiment: biochemical; format: biochemical; conditions: for closing (deactivation) of the SR CRC (in words): higher concentrations, up to 1 mM for V-II, XXI preliminary; for pharmacological profile (in words): vs biphasic profile of ryanodine
# Procedure: Briefly, junctional SR vesicles from rabbit skeletal muscle were passively loaded with. ^45 Ca^2+ in the presence and absence of the esters. Ca^2+ -efflux was then initiated by diluting the vesicles 100-fold into a low Ca^2+ -concentration. ^45 Ca^2+ remaining in the vesicles was determined after a 3 sec. efflux period by termination and filtration of the vesicles followed by liquid scintillation counting.
# [5] = Table I, displacement of 6.7 nM [3H]ryanodine, mean ± standard deviation of replicates, read-out: IC50
# [6] = Table I, mean ± standard deviation of replicates, read-out: KD
# [7] = second embodiment, read-out: IC50
# [8] = first embodiment, read-out: IC50
# [9] = Table II, more highly purified standards, read-out: IC50 (nM) ± S.D.
# SR Ca^2+ release channel (junctional SR vesicles from rabbit skeletal muscle), sequence (P11716 whole entry): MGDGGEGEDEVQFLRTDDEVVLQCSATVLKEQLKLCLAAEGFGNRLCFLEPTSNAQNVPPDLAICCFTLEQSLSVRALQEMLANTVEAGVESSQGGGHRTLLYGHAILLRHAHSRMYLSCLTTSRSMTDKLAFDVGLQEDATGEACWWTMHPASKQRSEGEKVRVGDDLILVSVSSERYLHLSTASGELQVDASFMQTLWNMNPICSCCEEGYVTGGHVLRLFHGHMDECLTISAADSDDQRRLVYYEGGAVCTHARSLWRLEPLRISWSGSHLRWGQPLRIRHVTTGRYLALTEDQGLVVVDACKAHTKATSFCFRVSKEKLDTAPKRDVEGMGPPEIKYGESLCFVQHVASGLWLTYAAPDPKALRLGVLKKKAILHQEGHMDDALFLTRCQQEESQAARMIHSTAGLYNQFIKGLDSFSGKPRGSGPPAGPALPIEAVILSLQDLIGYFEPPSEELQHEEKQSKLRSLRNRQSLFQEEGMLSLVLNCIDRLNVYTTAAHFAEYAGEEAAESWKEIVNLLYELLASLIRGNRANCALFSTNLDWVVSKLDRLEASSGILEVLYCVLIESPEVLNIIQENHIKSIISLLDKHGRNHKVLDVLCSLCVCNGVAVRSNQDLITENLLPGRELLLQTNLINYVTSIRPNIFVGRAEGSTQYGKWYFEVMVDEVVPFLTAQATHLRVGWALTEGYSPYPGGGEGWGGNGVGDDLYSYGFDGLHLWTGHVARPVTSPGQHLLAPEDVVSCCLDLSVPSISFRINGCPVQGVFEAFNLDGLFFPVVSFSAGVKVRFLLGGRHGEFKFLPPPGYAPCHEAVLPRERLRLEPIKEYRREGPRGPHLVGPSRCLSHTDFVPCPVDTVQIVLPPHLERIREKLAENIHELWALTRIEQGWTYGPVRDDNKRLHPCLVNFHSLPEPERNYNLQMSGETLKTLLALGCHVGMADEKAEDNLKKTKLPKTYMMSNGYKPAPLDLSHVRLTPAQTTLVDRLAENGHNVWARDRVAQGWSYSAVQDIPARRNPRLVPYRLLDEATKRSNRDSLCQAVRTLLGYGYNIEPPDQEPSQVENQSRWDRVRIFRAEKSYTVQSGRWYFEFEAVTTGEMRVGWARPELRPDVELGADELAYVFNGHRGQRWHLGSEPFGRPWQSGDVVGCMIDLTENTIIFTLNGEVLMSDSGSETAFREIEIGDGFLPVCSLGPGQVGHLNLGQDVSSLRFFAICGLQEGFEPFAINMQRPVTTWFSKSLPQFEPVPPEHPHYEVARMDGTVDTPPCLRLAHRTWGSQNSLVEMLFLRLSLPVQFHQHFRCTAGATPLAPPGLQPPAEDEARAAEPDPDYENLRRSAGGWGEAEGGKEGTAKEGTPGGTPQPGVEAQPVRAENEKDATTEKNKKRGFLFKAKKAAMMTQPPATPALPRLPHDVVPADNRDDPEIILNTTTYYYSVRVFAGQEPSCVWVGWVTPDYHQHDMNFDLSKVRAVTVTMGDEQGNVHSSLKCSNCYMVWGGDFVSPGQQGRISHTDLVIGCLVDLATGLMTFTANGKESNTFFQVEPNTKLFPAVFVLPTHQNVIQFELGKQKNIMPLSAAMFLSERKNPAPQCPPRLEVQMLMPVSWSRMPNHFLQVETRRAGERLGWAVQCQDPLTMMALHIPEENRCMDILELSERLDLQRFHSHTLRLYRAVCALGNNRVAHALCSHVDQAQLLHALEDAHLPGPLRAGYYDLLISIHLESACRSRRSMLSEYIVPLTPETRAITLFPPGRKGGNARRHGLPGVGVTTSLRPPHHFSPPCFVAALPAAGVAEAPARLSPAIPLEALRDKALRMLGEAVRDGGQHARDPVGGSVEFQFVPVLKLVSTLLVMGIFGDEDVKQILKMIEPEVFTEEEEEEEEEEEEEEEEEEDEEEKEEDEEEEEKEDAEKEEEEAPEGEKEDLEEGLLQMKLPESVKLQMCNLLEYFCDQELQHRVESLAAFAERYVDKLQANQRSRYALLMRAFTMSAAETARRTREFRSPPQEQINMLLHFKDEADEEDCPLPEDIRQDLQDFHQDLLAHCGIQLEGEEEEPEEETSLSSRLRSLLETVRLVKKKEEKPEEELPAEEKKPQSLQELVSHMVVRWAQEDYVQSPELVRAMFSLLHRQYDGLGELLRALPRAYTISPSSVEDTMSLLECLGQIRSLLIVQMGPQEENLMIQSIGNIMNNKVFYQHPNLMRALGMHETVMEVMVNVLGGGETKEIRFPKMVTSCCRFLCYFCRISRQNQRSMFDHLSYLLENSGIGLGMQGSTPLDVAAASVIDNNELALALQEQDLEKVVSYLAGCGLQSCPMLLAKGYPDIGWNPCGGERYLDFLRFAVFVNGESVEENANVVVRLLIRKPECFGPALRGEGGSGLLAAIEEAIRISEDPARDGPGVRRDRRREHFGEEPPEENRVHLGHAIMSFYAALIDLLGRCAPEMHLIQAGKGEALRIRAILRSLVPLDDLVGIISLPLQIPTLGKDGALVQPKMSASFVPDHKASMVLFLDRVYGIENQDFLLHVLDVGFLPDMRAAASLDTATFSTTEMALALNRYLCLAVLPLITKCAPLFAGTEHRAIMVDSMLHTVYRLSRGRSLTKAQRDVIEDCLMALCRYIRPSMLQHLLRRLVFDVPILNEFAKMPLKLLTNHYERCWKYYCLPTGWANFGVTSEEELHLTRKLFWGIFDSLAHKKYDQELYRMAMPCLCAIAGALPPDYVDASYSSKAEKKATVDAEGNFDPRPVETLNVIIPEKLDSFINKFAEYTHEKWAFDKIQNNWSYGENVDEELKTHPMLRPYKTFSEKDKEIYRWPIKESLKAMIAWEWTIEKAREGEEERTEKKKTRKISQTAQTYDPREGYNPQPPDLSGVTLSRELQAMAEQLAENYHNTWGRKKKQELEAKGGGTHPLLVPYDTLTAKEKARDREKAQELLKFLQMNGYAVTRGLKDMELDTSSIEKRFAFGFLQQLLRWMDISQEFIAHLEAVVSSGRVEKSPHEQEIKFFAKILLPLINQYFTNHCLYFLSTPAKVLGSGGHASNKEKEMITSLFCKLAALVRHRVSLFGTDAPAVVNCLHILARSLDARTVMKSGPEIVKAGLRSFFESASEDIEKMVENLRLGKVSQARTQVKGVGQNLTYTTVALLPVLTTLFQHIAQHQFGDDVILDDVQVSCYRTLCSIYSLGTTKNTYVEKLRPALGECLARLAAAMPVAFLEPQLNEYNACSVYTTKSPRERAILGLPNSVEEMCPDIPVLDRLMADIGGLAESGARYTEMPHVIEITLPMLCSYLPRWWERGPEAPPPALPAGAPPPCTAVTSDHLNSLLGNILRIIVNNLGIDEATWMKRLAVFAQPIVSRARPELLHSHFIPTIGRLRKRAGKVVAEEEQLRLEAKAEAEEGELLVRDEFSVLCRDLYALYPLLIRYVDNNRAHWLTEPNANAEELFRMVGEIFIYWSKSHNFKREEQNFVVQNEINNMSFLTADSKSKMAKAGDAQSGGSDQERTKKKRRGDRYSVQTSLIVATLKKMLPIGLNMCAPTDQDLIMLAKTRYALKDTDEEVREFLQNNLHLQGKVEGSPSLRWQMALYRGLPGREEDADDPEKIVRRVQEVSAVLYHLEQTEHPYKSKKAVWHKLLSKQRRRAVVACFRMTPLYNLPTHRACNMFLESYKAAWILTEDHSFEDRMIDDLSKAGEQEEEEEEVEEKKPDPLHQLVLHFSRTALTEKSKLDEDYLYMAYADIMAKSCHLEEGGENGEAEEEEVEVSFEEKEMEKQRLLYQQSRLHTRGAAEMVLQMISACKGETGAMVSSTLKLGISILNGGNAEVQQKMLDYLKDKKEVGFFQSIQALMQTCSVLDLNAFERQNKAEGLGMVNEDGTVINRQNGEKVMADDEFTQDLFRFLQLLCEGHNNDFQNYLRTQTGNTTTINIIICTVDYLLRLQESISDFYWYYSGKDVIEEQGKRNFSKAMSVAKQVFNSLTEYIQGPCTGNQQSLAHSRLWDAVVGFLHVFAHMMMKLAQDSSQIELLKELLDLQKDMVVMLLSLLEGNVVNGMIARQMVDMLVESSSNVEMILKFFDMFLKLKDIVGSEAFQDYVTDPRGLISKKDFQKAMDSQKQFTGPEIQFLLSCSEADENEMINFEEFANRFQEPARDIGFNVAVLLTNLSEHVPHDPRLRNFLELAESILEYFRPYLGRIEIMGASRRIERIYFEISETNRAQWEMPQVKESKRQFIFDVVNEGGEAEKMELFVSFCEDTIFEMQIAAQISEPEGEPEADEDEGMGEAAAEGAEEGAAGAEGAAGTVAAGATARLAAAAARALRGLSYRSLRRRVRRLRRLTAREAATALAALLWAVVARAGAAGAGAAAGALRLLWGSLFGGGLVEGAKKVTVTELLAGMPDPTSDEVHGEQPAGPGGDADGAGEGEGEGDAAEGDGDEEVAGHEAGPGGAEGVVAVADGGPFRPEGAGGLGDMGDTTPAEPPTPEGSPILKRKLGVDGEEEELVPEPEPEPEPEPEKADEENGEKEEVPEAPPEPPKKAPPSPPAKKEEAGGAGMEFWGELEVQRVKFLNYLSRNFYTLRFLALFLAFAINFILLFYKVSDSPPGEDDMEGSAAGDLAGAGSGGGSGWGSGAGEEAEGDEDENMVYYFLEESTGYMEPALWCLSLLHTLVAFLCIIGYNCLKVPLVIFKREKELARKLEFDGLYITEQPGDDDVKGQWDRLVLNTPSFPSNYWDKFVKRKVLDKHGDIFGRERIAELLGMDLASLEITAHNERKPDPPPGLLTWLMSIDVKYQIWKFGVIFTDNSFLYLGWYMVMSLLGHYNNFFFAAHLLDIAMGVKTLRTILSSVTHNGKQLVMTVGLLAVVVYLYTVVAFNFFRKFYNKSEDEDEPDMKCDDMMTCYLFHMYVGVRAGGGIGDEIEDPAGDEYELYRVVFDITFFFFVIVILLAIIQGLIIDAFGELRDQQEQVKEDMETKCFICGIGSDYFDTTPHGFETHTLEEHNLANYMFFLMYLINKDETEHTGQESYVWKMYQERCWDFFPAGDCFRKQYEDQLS
# T2 sequence (P11716 whole entry): as above
# T1 sequence (P11716 whole entry): as above
smiles,measurement,setting,value
"C=C1CCC2(O)C3(C)CC4(O)OC2(C1O)C1(O)C3(O)C(OC(=O)c2ccc[nH]2)C(O)(C(C)C)C41C (stereo not shown) [Dehydroryanodine, dehydroryanodine]",IC50,[1],16.1 ± 4.1 nM
same,Kd,[1],5.4 ± 0.1 nM
same,closing of the SR Ca^++ release channel (in words),"[2]; I, NMDS: concentrations as high as 300 μM, ryanodine, dehydroryanodine: >μM",the channel is closed
same,opening of the SR Ca^++ release channel (in words),"[2]; ryanodine, dehydroryanodine: low concentrations (<μM)",opens the SR Ca^++ release channel/ryanodine receptor; also recorded: the Ca^++ release channel is opened
"CC1CCC2(O)C3(C)CC4(O)OC2(C1OC(=O)CNC(=O)OCc1ccccc1)C1(O)C3(O)C(OC(=O)c2ccc[nH]2)C(O)(C(C)C)C41C (stereo not shown) [I, O10eq-[(N'Carbobenzyloxy)-Glycyl]-Ryanodine]",relative binding affinity compared with ryanodine (in words),[3]; vs ryanodine,slightly enhanced affinity
same,IC50,[1]; [5],22.3 ± 7.3 nM
same,Kd,[1]; [6],6.6 ± 2 nM
same,closing of the SR Ca^++ release channel (in words),[2],neither XVII(NMDS) nor CBZ-glycyl-ryanodine (I) exhibits significant ability to close the channel
same,opening of the SR Ca^++ release channel (in words),[2],"only slightly less active than ryanodine for opening the channel; also recorded: same selective activity of only opening this channel, albeit at higher dose levels"
same,potency and selectivity comparison (in words),[2]; I vs XVIII (NMDS),more potent and more selective than XVIII(NMDS)
"C=C1CCC2(O)C3(C)CC4(O)OC2(C1OC(=O)CCNC(=O)c1ccccc1)C1(O)C3(O)C(OC(=O)c2ccc[nH]2)C(O)(C(C)C)C41C (stereo not drawn) [II, O10eg -(N-Benzoyl-β-alanyl)-Dehydroryanodine]",IC50,[1]; [5],25.1 ± 8.2 nM
same,Kd,[1]; [6],8.2 ± 3.2 nM
"C=C1CCC2(O)C3(C)CC4(O)OC2(C1OC(=O)CCNC(=O)C12CC5CC(CC(C5)C1)C2)C1(O)C3(O)C(OC(=O)c2ccc[nH]2)C(O)(C(C)C)C41C (stereo not drawn) [III, O10eq-[N-(1-Adamantanecarbonyl)-β-Alanyl]-Dehydroryanodine]",IC50,[1]; [5],72.8 ± 6.2 nM
same,Kd,[1]; [6],26.9 ± 3.6 nM
"CC1CCC2(O)C3(C)CC4(O)OC2(C1OC(=O)CCNC(=O)OCc1ccccc1)C1(O)C3(O)C(OC(=O)c2ccc[nH]2)C(O)(C(C)C)C41C (stereo not drawn) [IV, O10eq. -Carbobenzyloxy-β-alanyl-ryanodine]",IC50,"[3]; Table I value multiplied by 6.2/11.9=0.52, read-out: adjusted IC50 value",6.4 nM
same,IC50,[3]; [7],5.9 nM
same,relative binding affinity compared with ryanodine (in words),[3]; vs ryanodine,slightly enhanced affinity
same,IC50,[1]; [5],12.3 ± 1 nM
same,Kd,[1]; [6],4 ± 0.2 nM
same,IC50,"[1]; restated for adjustment, read-out: IC50 value (Table I value as restated in text)",12.3 nM
same,opening of the SR Ca^++ release channel (in words),[2],"same selective activity of only opening this channel, albeit at higher dose levels"
"CC1=C(C(C)C)C(OC(=O)c2ccc[nH]2)C2(O)C3(C)CC(=O)OC4(C(OC(=O)CCN)C(C)CCC34O)C12O (stereo not drawn) [V-I, O10eq -β-Alanyl-Anhydroryanodine]",IC50,[1]; [5],37 nM
same,IC50,[1]; [8],106 nM
same,Kd,"[1]; first embodiment, read-out: KD",37 nM
same,binding affinity as fraction of that of Ryanodine,[1]; vs ryanodine,1/10
"CC1CCC2(O)C3(C)CC4(O)OC2(C1OC(=O)CCN)C1(O)C3(O)C(OC(=O)c2ccc[nH]2)C(O)(C(C)C)C41C (stereo not drawn) [V-II, O10eq -β-Alanyl-Ryanodine]",opening (activation) of the SR CRC (in words),[4],induces full opening of the SR CRC
same,EC (maximal activation),"[4]; 3 s, 45Ca2+ efflux, skeletal SR vesicles, read-out: concentration of maximal channel activation",10 µM
same,closing (deactivation) of the SR CRC (in words),[4],none of the closing action seen with high concentrations of ryanodine
same,shift of activation curve relative to ryanodine,[4]; towards lower concentrations,three-fold
same,pharmacological profile (in words),[4],"altered--unidirectional--pharmacological profile, differing from the biphasic profile of ryanodine"
same,relative binding affinity compared with ryanodine (in words),[3]; vs ryanodine,two to three-fold greater RBA
same,binding affinity for the ryanodine receptor (in words),[1],approximately four-fold higher affinity
same,Kd,[1]; [6],1 ± 0.3 nM
same,IC50,"[1]; V-II from direct preparation by hydrogenolysis of IV in presence of triethylamine, read-out: IC50",4.3 nM
same,IC50,[1]; [8],2.8 ± 0.8 nM
same,Kd,"[1]; first embodiment, read-out: KD",1 nM
same,binding affinity to the ryanodine receptor relative to ryanodine (times stronger/greater),[1]; vs ryanodine,3.5-4 times and 4 times
same,opening of the SR Ca^++ release channel (in words),[2],exhibits only the ability to enhance Ca^++ flux by opening the SR Ca^++ channel
"CC1CCC2(O)C3(C)CC4(O)OC2(C1OC(=O)CCNC(=O)c1cc(N=[N+]=[N-])ccc1[N+](=O)[O-])C1(O)C3(O)C(OC(=O)c2ccc[nH]2)C(O)(C(C)C)C41C (stereo not drawn) [VI, O10eq-[N-(5-Azido-2-nitrobenzoyl)-β-Alanyl] Ryanodine]",binding affinity for the ryanodine receptor (in words),[1],of a similar magnitude as that of ryanodine
same,IC50,[1]; [5],36.6 ± 2.8 nM
same,Kd,[1]; [6],12.5 ± 1 nM
same,Kd,"[1]; VI prepared from V-II, read-out: KD (50)",12.5 ± 1 nM
same,IC50,"[1]; VI prepared from V, read-out: IC50",37.2 ± 9.7 nM
same,Kd,"[1]; VI prepared from V, read-out: KD",14 ± 3.6 nM
same,IC50,[1]; [8],36.6 ± 2.8 nM
same,Kd,"[1]; first embodiment, read-out: KD",12.5 ± 1 nM
"C=C1CCC2(O)C3(C)CC4(O)OC2(C1OC(=O)CCNC(=O)c1ccc(I)cc1)C1(O)C3(O)C(OC(=O)c2ccc[nH]2)C(O)(C(C)C)C41C (stereo not drawn) [XII, p-Iodobenzoyl-β-alanyl-dehydroryanodine]",binding affinity for the ryanodine receptor (in words),[1],binds effectively to the ryanodine receptor
same,IC50,[1]; [5],16 nM
same,Kd,[1]; [6],5.2 nM
same,IC50,[1]; [8],16 nM
same,Kd,"[1]; first embodiment, read-out: KD",5.2 nM
"C=C1CCC2(O)C3(C)CC4(O)OC2(C1OC(=O)CCNC(=O)c1ccc(OCCCC)cc1)C1(O)C3(O)C(OC(=O)c2ccc[nH]2)C(O)(C(C)C)C41C (stereo not drawn) [XIII, O10eq-[N-(p-n-Butoxybenzoyl)-β-Alanyl]-Dehydroryanodine]",IC50,[1]; [5],28 ± 6.6 nM
same,Kd,[1]; [6],9.7 ± 2.5 nM
same,IC50,[1]; [8],20.2 nM
same,Kd,"[1]; first embodiment, read-out: KD",6 nM
"CC1CCC2(O)C3(C)CC4(O)OC2(C1OC(=O)CCNC(=O)CCCCC1SCC2NC(=O)NC21)C1(O)C3(O)C(OC(=O)c2ccc[nH]2)C(O)(C(C)C)C41C (stereo not drawn) [XIV, O10eq -N-Biotinlyl-β-Alanyl-Ryanodine]",IC50,[1]; [5],65.1 ± 5.5 nM
same,Kd,[1]; [6],24.9 ± 1.4 nM
same,IC50,[1]; [8],65.1 ± 3.5 nM
same,Kd,"[1]; first embodiment, read-out: KD",24.9 ± 1.4 nM
"CC1=CC(C)=[N+]2C1=Cc1ccc(CCC(=O)NCCC(=O)OC3C(C)CCC4(O)C5(C)CC6(O)OC34C3(O)C5(O)C(OC(=O)c4ccc[nH]4)C(O)(C(C)C)C63C)n1[B-]2(F)F (stereo not drawn) [XV, O10eq -N-BODIPY(FL C3)-β-Alanyl-Ryanodine]",IC50,[1]; [5],41.2 ± 2.7 nM
same,Kd,[1]; [6],15.8 ± 1 nM
same,IC50,[1]; [8],41.2 ± 2.7 nM
same,Kd,"[1]; first embodiment, read-out: KD",15.8 ± 1 nM
"C=C1CCC2(O)C3(C)CC4(O)OC2(C1OC(=O)CCC(=O)O)C1(O)C3(O)C(OC(=O)c2ccc[nH]2)C(O)(C(C)C)C41C (stereo not shown) [XVII, Dehydroryanodine-O10eg -Hemi-Succinate]",IC50,[1]; IC50 (nM),> 1000 nM
"C=C1CCC2(O)C3(C)CC4(O)OC2(C1OC(=O)CCC(=O)NC)C1(O)C3(O)C(OC(=O)c2ccc[nH]2)C(O)(C(C)C)C41C (stereo not shown) [XVIII, N-Methyl-Dehydroryanodine-Succinamidate]",IC50,[1]; IC50 (nM),49.4 ± 10.6 nM
same,Kd,[1]; [6],19.9 ± 5.8 nM
same,closing of the SR Ca^++ release channel (in words),[2],neither XVII(NMDS) nor CBZ-glycyl-ryanodine (I) exhibits significant ability to close the channel
same,opening of the SR Ca^++ release channel (in words),[2],only slightly less active than ryanodine for opening the channel
"CC1CCC2(O)C3(C)CC4(O)OC2(C1OC(=O)CCNC(=NC(=O)OCc1ccccc1)NC(=O)OCc1ccccc1)C1(O)C3(O)C(OC(=O)c2ccc[nH]2)C(O)(C(C)C)C41C (stereo not drawn) [XX, O10eq -β-N,N'-bis-Cbz-guanidino-propionyl-ryanodine]",IC50,[3]; [9],43.6 nM
same,lessened affinity compared with ryanodine,[3]; vs ryanodine,7-20 fold
"CC1CCC2(O)C3(C)CC4(O)OC2(C1OC(=O)CCNC(=N)N)C1(O)C3(O)C(OC(=O)c2ccc[nH]2)C(O)(C(C)C)C41C (stereo not drawn) [XXI, O10eq -β-Guanidinopropionyl-Ryanodine]",opening (activation) of the SR CRC (in words),[4],appears to be purely an activator of the SR CRC
same,closing (deactivation) of the SR CRC (in words),[4],entirely lack the ability of ryanodine to close the SR CRC
same,pharmacological profile (in words),[4],"altered--unidirectional--pharmacological profile, differing from the biphasic profile of ryanodine"
same,IC50,[3]; [9],1.1 ± 0.1 nM
same,relative binding affinity compared with ryanodine (in words),[3]; vs ryanodine,about six times greater than that of ryanodine
same,relative binding affinity compared with ryanodine (in words),"[3]; vs ryanodine, listed as O10eq -β-guanidinopropyl-ryanodine",high binding affinity
"CC1CCC2(O)C3(C)CC4(O)OC2(C1OC(=O)CN)C1(O)C3(O)C(OC(=O)c2ccc[nH]2)C(O)(C(C)C)C41C (stereo not shown) [XXII, O10eq -glycyl-ryanodine]",IC50,[3]; [9],1.8 ± 0.4 nM
"CC1CCC2(O)C3(C)CC4(O)OC2(C1OC(=O)CNC(=NC(=O)OCc1ccccc1)NC(=O)OCc1ccccc1)C1(O)C3(O)C(OC(=O)c2ccc[nH]2)C(O)(C(C)C)C41C (stereo not shown) [XXIII, O10eq -N,N'-bis-(Cbz)-guanidinoacetyl-ryanodine]",lessened affinity compared with ryanodine,[3],7-20 fold
same,IC50,[3]; IC50 (nM) ± S.D.,136 nM
"CC1CCC2(O)C3(OC4(O)C[C@]2(C)C2(O)[C@H](OC(=O)c5ccc[nH]5)C(O)(C(C)C)C4(C)C32O)[C@@H]1OC(=O)CN=C(N)N (stereo partly shown) [XXIV, O10eq -Guanidinoacetyl-Ryanodine]",IC50,[3]; [9],1.8 ± 0.2 nM
same,IC50,[3]; [7],1.8 nM
"C=C1CCC2(O)C3(C)CC4(O)OC2(C1OC(=O)CCNC(=O)OCc1ccccc1)C1(O)C3(O)C(OC(=O)c2ccc[nH]2)C(O)(C(C)C)C41C (stereo not drawn) [XXV, O10eq -CBZ-β-Alanyl-Dehydroryanodine]",IC50,[3]; [9],4.43 nM
"C=C1CCC2(O)C3(C)CC4(O)OC2(C1OC(=O)CCN)C1(O)C3(O)C(OC(=O)c2ccc[nH]2)C(O)(C(C)C)C41C (stereo not drawn) [XXVI, O10eq -β-Alanyl-Dehydroryanodine]",IC50,[3]; [9],3.36 nM
"CC1CCC2(O)C3(C)CC4(O)OC2(C1OC(=O)CCNC(=O)CCNC(=O)c1cc(I)c(N=[N+]=[N-])cc1O)C1(O)C3(O)C(OC(=O)c2ccc[nH]2)C(O)(C(C)C)C41C (stereo not drawn) [XXXI, O10eq N-(4-azido-5-^125 Iodosalicyloyl)-β-alanyl-β-alanyl ryanodine]",deactivation of the CRC in calcium flux experiments (in words),"[4]; concentrations greater than 1 mM, non-radioactive compound",does not deactivate the CRC
same,IC50,"[1]; non-radioactive compound, read-out: IC50",25.1 ± 2.5 nM
